Data as given in the OligoGym collection.
HELM strings list units from the 5' end as sugar, base in round brackets, then linkage (d deoxyribose, r ribose, m 2'-O-methyl, p phosphodiester). Strings are as the collection lists them, not checked against the first reports. ss, as = sense and antisense strand; [s4r] = 4'-thioribose; [fl2r] = 2'-fluoro

settings: siRNA
Note: test system not given here.

Substance	target mRNA knockdown [%]
RNA1{r(G)p.r(C)p.r(U)p.r(U)p.m(U)p.r(A)p.r(A)p.r(G)p.r(G)p.r(A)p.r(A)p.r(C)p.m(U)p.r(G)p.r(G)p.r(A)p.r(A)p.r(G)p.r(G)p.r(T)p.r(T)}|RNA2{r(C)p.r(C)p.r(U)p.r(U)p.r(C)p.m(C)p.r(A)p.r(G)p.r(U)p.r(U)p.r(C)p.r(C)p.r(U)p.m(U)p.r(A)p.r(A)p.r(A)p.r(G)p.r(C)p.r(T)p.r(T)}$$$RNA1{StrandType:ss}|RNA2{StrandType:as}$	37
RNA1{m(A)p.r(C)p.m(C)p.r(U)p.m(U)p.r(A)p.m(A)p.r(G)p.m(G)p.r(A)p.m(C)p.r(C)p.m(A)p.r(C)p.m(C)p.r(G)p.m(G)p.r(A)p.m(U)p.r(T)p.r(T)}|RNA2{r(A)p.r(U)p.r(C)p.m(C)p.r(G)p.r(G)p.r(U)p.r(G)p.r(G)p.r(U)p.r(C)p.r(C)p.m(U)p.r(U)p.m(A)p.r(A)p.m(G)p.r(G)p.m(U)p.r(T)p.r(T)}$$$RNA1{StrandType:ss}|RNA2{StrandType:as}$	52
RNA1{r(A)p.r(G)p.r(A)p.r(A)p.r(A)p.m(C)p.r(G)p.m(C)p.r(A)p.r(G)p.m(U)p.r(A)p.r(A)p.m(U)p.m(C)p.m(C)p.r(G)p.r(G)p.r(A)p.r(T)p.r(T)}|RNA2{m(U)p.m(C)p.m(C)p.r(G)p.r(G)p.r(A)p.m(U)p.m(U)p.r(A)p.m(C)p.m(U)p.r(G)p.m(C)p.r(G)p.m(U)p.m(U)p.m(U)p.m(C)p.m(U)p.r(T)p.r(T)}$$$RNA1{StrandType:ss}|RNA2{StrandType:as}$	80
RNA1{[fl2r](C)p.r(A)p.r(G)p.r(A)p.r(G)p.[fl2r](C)p.r(A)p.r(A)p.[fl2r](U)p.[fl2r](U)p.r(G)p.[fl2r](U)p.[fl2r](U)p.[fl2r](U)p.r(A)p.[fl2r](C)p.[fl2r](C)p.[fl2r](U)p.r(A)p.r(T)p.r(T)}|RNA2{[fl2r](U)p.r(A)p.r(G)p.r(G)p.[fl2r](U)p.r(A)p.r(A)p.r(A)p.[fl2r](C)p.r(A)p.r(A)p.[fl2r](U)p.[fl2r](U)p.r(G)p.[fl2r](C)p.[fl2r](U)p.[fl2r](C)p.r(U)p.r(G)p.r(T)p.r(T)}$$$RNA1{StrandType:ss}|RNA2{StrandType:as}$	72
RNA1{m(A)p.r(U)p.m(C)p.r(U)p.m(A)p.r(C)p.m(C)p.r(C)p.m(A)p.r(G)p.m(C)p.r(U)p.m(C)p.r(U)p.m(C)p.r(C)p.m(C)p.r(U)p.m(U)p.r(T)p.r(T)}|RNA2{r(A)p.r(A)p.r(G)p.r(G)p.r(G)p.r(A)p.r(G)p.r(A)p.r(G)p.r(C)p.m(U)p.r(G)p.r(G)p.r(G)p.m(U)p.r(A)p.r(G)p.r(A)p.m(U)p.r(T)p.r(T)}$$$RNA1{StrandType:ss}|RNA2{StrandType:as}$	43
RNA1{r(G)p.m(U)p.r(A)p.r(C)p.r(U)p.r(C)p.r(U)p.r(G)p.r(A)p.r(U)p.r(G)p.r(A)p.r(G)p.r(G)p.r(A)p.r(A)p.r(G)p.r(A)p.r(G)p.r(T)p.r(T)}|RNA2{r(C)p.r(U)p.r(C)p.r(U)p.r(U)p.r(C)p.r(C)p.r(U)p.r(C)p.r(A)p.r(U)p.r(C)p.r(A)p.r(G)p.r(A)p.r(G)p.r(U)p.r(A)p.r(C)p.r(T)p.r(T)}$$$RNA1{StrandType:ss}|RNA2{StrandType:as}$	69
RNA1{m(C)p.r(U)p.m(A)p.r(C)p.m(C)p.r(U)p.m(U)p.r(C)p.m(U)p.r(C)p.m(C)p.r(U)p.m(C)p.r(U)p.m(U)p.r(C)p.m(U)p.r(C)p.m(C)p.r(T)p.r(T)}|RNA2{r(G)p.r(G)p.r(A)p.r(G)p.r(A)p.r(A)p.r(G)p.r(A)p.r(G)p.r(G)p.r(A)p.r(G)p.r(A)p.r(A)p.r(G)p.r(G)p.r(U)p.r(A)p.r(G)p.r(T)p.r(T)}$$$RNA1{StrandType:ss}|RNA2{StrandType:as}$	27
RNA1{r(C)p.[fl2r](C)p.r(A)p.r(G)p.r(C)p.r(G)p.r(A)p.r(G)p.r(C)p.r(C)p.[fl2r](C)p.r(A)p.r(A)p.r(A)p.r(A)p.[fl2r](G)p.r(A)p.r(A)p.r(A)p.r(T)p.r(T)}|RNA2{r(U)p.r(U)p.r(U)p.r(C)p.r(U)p.r(U)p.r(U)p.[fl2r](U)p.r(G)p.r(G)p.r(G)p.r(C)p.r(U)p.r(C)p.r(G)p.r(C)p.[fl2r](U)p.r(G)p.r(G)p.r(T)p.r(T)}$$$RNA1{StrandType:ss}|RNA2{StrandType:as}$	82
RNA1{m(G)p.r(A)p.m(A)p.r(U)p.m(A)p.r(A)p.m(C)p.r(C)p.m(U)p.r(G)p.m(A)p.r(A)p.m(C)p.r(G)p.m(U)p.r(C)p.m(A)p.r(C)p.m(C)p.r(T)p.r(T)}|RNA2{r(G)p.r(G)p.r(U)p.r(G)p.m(A)p.r(C)p.r(G)p.r(U)p.r(U)p.r(C)p.m(A)p.r(G)p.r(G)p.r(U)p.r(U)p.m(A)p.r(U)p.r(U)p.r(C)p.r(T)p.r(T)}$$$RNA1{StrandType:ss}|RNA2{StrandType:as}$	21
RNA1{[s4r](C)p.[s4r](G)p.[s4r](U)p.[s4r](A)p.[s4r](C)p.[s4r](G)p.r(C)p.r(G)p.r(G)p.r(A)p.r(A)p.r(U)p.r(A)p.[s4r](C)p.[s4r](U)p.[s4r](U)p.[s4r](C)p.[s4r](G)p.[s4r](A)p.r(T)p.r(T)}|RNA2{[s4r](U)p.[s4r](C)p.[s4r](G)p.[s4r](A)p.[s4r](A)p.[s4r](G)p.r(U)p.r(A)p.r(U)p.r(U)p.r(C)p.r(C)p.r(G)p.[s4r](C)p.[s4r](G)p.[s4r](U)p.[s4r](A)p.[s4r](C)p.[s4r](G)p.r(T)p.r(T)}$$$RNA1{StrandType:ss}|RNA2{StrandType:as}$	0
RNA1{m(A)p.r(A)p.m(A)p.r(C)p.m(C)p.r(U)p.m(C)p.r(A)p.m(G)p.r(C)p.m(C)p.r(C)p.m(U)p.r(A)p.m(A)p.r(C)p.m(G)p.r(G)p.m(U)p.r(T)p.r(T)}|RNA2{r(A)p.r(C)p.r(C)p.r(G)p.r(U)p.r(U)p.r(A)p.r(G)p.r(G)p.r(G)p.r(C)p.r(U)p.r(G)p.r(A)p.r(G)p.r(G)p.r(U)p.r(U)p.r(U)p.r(T)p.r(T)}$$$RNA1{StrandType:ss}|RNA2{StrandType:as}$	51
RNA1{r(G)p.r(A)p.r(A)p.r(A)p.r(C)p.r(U)p.r(G)p.r(G)p.r(U)p.r(A)p.r(C)p.r(U)p.r(U)p.r(U)p.r(C)p.r(C)p.r(C)p.r(C)p.r(C)p.r(T)p.r(T)}|RNA2{r(G)p.r(G)p.r(G)p.r(G)p.r(G)p.r(A)p.r(A)p.r(A)p.r(G)p.[fl2r](U)p.r(A)p.r(C)p.r(C)p.r(A)p.r(G)p.[fl2r](U)p.[fl2r](U)p.[fl2r](U)p.r(C)p.r(T)p.r(T)}$$$RNA1{StrandType:ss}|RNA2{StrandType:as}$	26
RNA1{[fl2r](A)p.r(U)p.[fl2r](C)p.r(G)p.[fl2r](C)p.r(U)p.[fl2r](G)p.r(C)p.[fl2r](U)p.r(C)p.[fl2r](C)p.r(U)p.[fl2r](C)p.r(C)p.[fl2r](U)p.r(C)p.[fl2r](C)p.r(U)p.[fl2r](C)p.r(T)p.r(T)}|RNA2{r(G)p.r(A)p.r(G)p.r(G)p.r(A)p.r(G)p.r(G)p.r(A)p.r(G)p.r(G)p.r(A)p.r(G)p.r(C)p.r(A)p.r(G)p.r(C)p.r(G)p.r(A)p.[fl2r](U)p.r(T)p.r(T)}$$$RNA1{StrandType:ss}|RNA2{StrandType:as}$	39
RNA1{r(A)p.r(U)p.r(C)p.r(U)p.r(G)p.r(A)p.r(A)p.r(G)p.r(A)p.r(A)p.r(G)p.r(G)p.r(A)p.r(G)p.r(A)p.r(A)p.r(A)p.r(A)p.r(A)p.d(T)p.d(T)}|RNA2{r(U)p.r(U)p.r(U)p.r(U)p.r(U)p.r(C)p.r(U)p.r(C)p.r(C)p.r(U)p.r(U)p.r(C)p.r(U)p.r(U)p.r(C)p.r(A)p.r(G)p.r(A)p.r(U)p.d(T)p.d(T)}$$$RNA1{StrandType:ss}|RNA2{StrandType:as}$	95
RNA1{m(U)p.r(A)p.r(A)p.r(A)p.r(G)p.r(C)p.r(U)p.r(G)p.r(G)p.r(A)p.r(A)p.r(A)p.r(G)p.r(G)p.r(G)p.r(A)p.r(C)p.r(G)p.r(G)p.r(T)p.r(T)}|RNA2{r(C)p.r(C)p.r(G)p.r(U)p.r(C)p.r(C)p.r(C)p.r(U)p.r(U)p.r(U)p.r(C)p.r(C)p.r(A)p.r(G)p.r(C)p.r(U)p.r(U)p.m(U)p.r(A)p.r(T)p.r(T)}$$$RNA1{StrandType:ss}|RNA2{StrandType:as}$	67
RNA1{r(A)p.r(A)p.r(C)p.r(C)p.r(C)p.r(A)p.r(C)p.r(C)p.r(A)p.r(C)p.r(A)p.r(G)p.r(C)p.m(U)p.r(A)p.r(G)p.r(A)p.r(A)p.r(C)p.m(U)p.m(U)}|RNA2{r(A)p.r(A)p.r(G)p.r(U)p.r(U)p.r(C)p.r(U)p.r(A)p.r(G)p.r(C)p.r(U)p.r(G)p.r(U)p.r(G)p.r(G)p.r(U)p.r(G)p.r(G)p.r(G)p.r(U)p.r(U)}$$$RNA1{StrandType:ss}|RNA2{StrandType:as}$	81
RNA1{r(A)p.r(U)p.m(C)p.r(A)p.m(C)p.r(A)p.r(A)p.r(A)p.r(C)p.r(C)p.r(C)p.r(C)p.r(U)p.r(A)p.r(G)p.r(A)p.r(G)p.r(G)p.r(G)p.r(T)p.r(T)}|RNA2{r(C)p.r(C)p.r(C)p.r(U)p.r(C)p.m(U)p.r(A)p.r(G)p.r(G)p.r(G)p.r(G)p.r(U)p.r(U)p.r(U)p.r(G)p.m(U)p.r(G)p.r(A)p.r(U)p.r(T)p.r(T)}$$$RNA1{StrandType:ss}|RNA2{StrandType:as}$	75
RNA1{r(A)p.r(A)p.m(U)p.r(A)p.r(A)p.r(G)p.m(C)p.r(A)p.r(G)p.r(C)p.r(U)p.r(C)p.r(G)p.r(C)p.r(G)p.r(C)p.r(U)p.r(C)p.r(C)p.r(T)p.r(T)}|RNA2{r(G)p.r(G)p.r(A)p.r(G)p.r(C)p.r(G)p.r(C)p.r(G)p.r(A)p.r(G)p.r(C)p.m(U)p.r(G)p.r(C)p.m(U)p.r(U)p.r(A)p.r(U)p.r(U)p.r(T)p.r(T)}$$$RNA1{StrandType:ss}|RNA2{StrandType:as}$	68
RNA1{r(C)p.r(U)p.r(C)p.r(U)p.r(C)p.r(C)p.r(U)p.[fl2r](A)p.r(C)p.r(C)p.r(U)p.r(U)p.r(C)p.r(U)p.r(C)p.r(C)p.r(U)p.r(C)p.r(U)p.r(T)p.r(T)}|RNA2{r(A)p.r(G)p.r(A)p.r(G)p.r(G)p.r(A)p.r(G)p.r(A)p.r(A)p.r(G)p.r(G)p.r(U)p.r(A)p.r(G)p.r(G)p.r(A)p.r(G)p.r(A)p.r(G)p.r(T)p.r(T)}$$$RNA1{StrandType:ss}|RNA2{StrandType:as}$	78
RNA1{r(A)p.r(C)p.r(C)p.r(U)p.[fl2r](U)p.r(A)p.r(A)p.r(G)p.r(G)p.r(A)p.r(C)p.r(C)p.r(A)p.r(C)p.r(C)p.r(G)p.r(G)p.r(A)p.r(U)p.r(T)p.r(T)}|RNA2{r(A)p.r(U)p.r(C)p.r(C)p.r(G)p.r(G)p.[fl2r](U)p.r(G)p.r(G)p.r(U)p.r(C)p.r(C)p.r(U)p.r(U)p.r(A)p.r(A)p.r(G)p.r(G)p.r(U)p.r(T)p.r(T)}$$$RNA1{StrandType:ss}|RNA2{StrandType:as}$	71
